Earlier results as cited in patent US20170246163A1, “METHODS OF IMPROVING BALANCE, GAIT OR BOTH IN PATIENTS WITH NEUROLOGICAL DISEASE” (priority 2016, published 2017).
Like-named read-outs stand apart in the source and are kept apart here.

Tests used:
[1] = system: subjects with moderate Alzheimer's disease; conditions: Phase 2
[2] = system: subjects with mild-to-moderate Alzheimer's disease; conditions: 48 weeks
[3] = system: PD patients experiencing frequent falls; conditions: crossover versus placebo, p<0.05
[4] = system: patients with either PD, PD-MCI, or PDD; conditions: 176 patients with PD, 12 months, p<0.01

In the case of COc1cc2c(cc1OC)C(=O)C(CC1CCN(Cc3ccccc3)CC1)C2 (stereo not drawn) [donepezil], the “subjects who experienced falls” value ([1]; donepezil alone) is given as 6%, the “subjects who experienced falls” value ([2]; donepezil alone) is given as 6% and the “falls reported while on treatment” value [3] is given as 0.13 falls/day.

In the case of Fc1ccc2c(CCNCc3cccc(OCC(F)(F)C(F)F)c3)c[nH]c2c1 [idalopirdine], the “subjects who experienced falls” value ([1]; on top of donepezil) is listed as 2%.

For O=S(=O)(c1ccccc1)c1cnc2c(N3CCNCC3)cccc2c1 [intepirdine, 3-phenylsulfonyl-8-piperazinyl-1yl-quinoline], the “subjects who experienced falls” value ([2]; on top of donepezil) is listed as 2%.

In the case of CCN(C)C(=O)Oc1cccc([C@H](C)N(C)C)c1 [rivastigmine], the “lowering of the incidence of falls relative to baseline” value [4] is given as 50%.
